Values after ≈ are worked out from the molar mass of the structure shown. Where two headings read alike, the source gives them in different places.
What was measured:
[1] = tested on: Candida lusitaniae ATCC 3449; test: Broth microdilution MIC/MFC, antifungal; assay type: cell-based; conditions: Clavispora lusitaniae, ATCC3449
Procedure: (§1) To determine the antifungal activity of the newly synthesized Schiff bases against the reference strains of Candida spp., the broth microdilution method was used according to the EUCAST [52] and Clinical and Laboratory Standards Institute (CLSI) guidelines with some modifications to the medium. Before in vitro antifungal activity detection, the basic concentration of 1000 µg/mL of each compound was prepared with Mueller–Hinton broth (BioMaxima, Lublin, Poland) supplemented with 2% glucose (MHB+2% glucose). […] The final concentrations of the Schiff bases ranged from […] to 1000 µg/mL. All the reference strains of Candida spp. used were first subcultured to the Mueller–Hinton agar medium (BioMaxima, Lublin, Poland) with 2% glucose (MHA +2% glucose) at 37 °C for 24 h. Next, 2 µL of appropriate fungal suspensions was added to each well containing 100 µL of MHB + 2% glucose and the various concentrations of the tested Schiff bases.
(§2) After incubation, 5 μL of the broth media cultured with bacteria or fungi were removed from each well of the plates used in the MIC experiments. Next, they were culturd onto the surface of the MHA medium (BioMaxima, Lublin, Poland) plate for bacteria or MHA +2% glucose plate for yeasts. The inoculated plates were incubated in the conditions mentioned above. After incubation, a visual reading of MBC or MFC values was made. […] Three replicates for each strain and compound were performed.

[2] = tested on: Candida krusei ATCC 14243; test: Broth microdilution MIC/MFC, antifungal; assay type: cell-based; conditions: Pichia kudriavzevii, ATCC14243
Procedure: as §1, §2

[3] = tested on: Candida tropicalis ATCC 1369; test: Broth microdilution MIC/MFC, antifungal; assay type: cell-based; conditions: ATCC1369
Procedure: as §1, §2

[4] = tested on: Candida glabrata ATCC 90030; test: Broth microdilution MIC/MFC, antifungal; assay type: cell-based; conditions: Nakaseomyces glabratus, ATCC90030
Procedure: as §1, §2

[5] = tested on: Candida glabrata ATCC 15126; test: Broth microdilution MIC/MFC, antifungal; assay type: cell-based; conditions: Nakaseomyces glabratus, ATCC15126
Procedure: as §1, §2

Candida auris CDC B11903 = test: Broth microdilution MIC/MFC, antifungal; assay type: cell-based; conditions: Candidozyma auris, CDCB11903
Procedure: as §1, §2

[6] = tested on: Candida albicans ATCC 10231; test: Broth microdilution MIC/MFC, antifungal; assay type: cell-based; conditions: for MIC: ATCC10231
Procedure: as §1, §2

[7] = tested on: Staphylococcus epidermidis ATCC 12228; test: Broth microdilution MIC/MBC, antibacterial; assay type: cell-based; conditions: ATCC12228
Procedure: (§3) The minimal inhibitory concentration (MIC) was determined with the microdilution technique using 96-well polystyrene microplates (Medlab, Poland), as indicated by the European Committee on Antimicrobial Susceptibility Testing (EUCAST) guidelines. In this process, stock solutions of each tested Schiff base dissolved in dimethylsulphoxide (DMSO, Stanlab, Poland) were used at a concentration of 50 mg/mL. Before in vitro antibacterial activity detection, the basic concentration of 1000 µg/mL of each compound was prepared with Mueller–Hinton broth medium (MHB, BioMaxima, Lublin, Poland). The experiment was prepared using Mueller–Hinton broth medium in 96-well microplates. A series of two-fold dilutions of the tested compounds in the concentration range from 0.49 to 1000 μg/mL was made in culture broth medium. Then, 2 μL of bacterial inoculum with a density of 0.5 McFarland standard was added to each well. Each well was filled with a total volume of 100 μL. Then, the microtiter plates were incubated for 18 ± 2 h at 35 °C. After the incubation, the results were spectrophotometrically determined in Biotek ELx800 (Biokom, Janki, Poland) at 600 nm (OD600). The lowest concentration of the tested compounds with the absence of bacterial growth was determined as an MIC. Three replicates for each strain and compound were performed.
as §2

[8] = tested on: Escherichia coli ATCC 25922; test: Broth microdilution MIC/MBC, antibacterial; assay type: cell-based; conditions: ATCC25922, Escherichia coli ATCC 25922
Procedure: as §3, §2

[9] = tested on: Micrococcus luteus ATCC 10240; test: Broth microdilution MIC/MBC, antibacterial; assay type: cell-based; conditions: ATCC10240
Procedure: as §3, §2

[10] = tested on: Staphylococcus aureus ATCC 6538; test: Broth microdilution MIC/MBC, antibacterial; assay type: cell-based; conditions: ATCC6538
Procedure: as §3, §2

[11] = tested on: Klebsiella pneumoniae ATCC 13883; test: Broth microdilution MIC/MBC, antibacterial; assay type: cell-based; conditions: ATCC13883, Klebsiella pneumoniae ATCC 13883
Procedure: as §3, §2

[12] = tested on: Pseudomonas aeruginosa ATCC 27853; test: Broth microdilution MIC/MBC, antibacterial; assay type: cell-based; conditions: ATCC27853
Procedure: as §3, §2

[13] = tested on: Bacillus subtilis ATCC 6633; test: Broth microdilution MIC/MBC, antibacterial; assay type: cell-based; conditions: ATCC6633
Procedure: as §3, §2

[14] = tested on: tested strains of bacteria; design: method as in PMID 25412038; conditions: cited from earlier work
PC3 = test: MTT cell viability assay; assay type: cell-based, human; conditions: Homo sapiens, PC-3, PC3, MTT, read-out: Cytotoxic activity IC50
Procedure: (§4) All the cell lines were purchased from the American Type Culture Collection (ATCC, Rockville, MD, USA) and cultured in strictly defined conditions according to the recommended ATCC protocol. The PC3 cells were cultured in RPMI 1640 (Roswell Park Memorial Institute, Biowest SAS, Nuaillé, France), while the MDA-MB-231 and HaCaT cells were maintained in DMEM (Dulbecco’s Modified Eagle’s Medium, Biowest SAS, Nuaillé, France) supplemented with 1% streptomycin and penicillin and in 10% heat-inactivated fetal bovine serum (FBS, Gibco BRL San Francisco, CA, USA) with 1% streptomycin and penicillin. The cells were incubated in a 37 °C/5% CO2 humidified incubator. They were cultured until 80–90% confluence was achieved. Then, they were harvested by treatment with 0.25% trypsin-0.02% EDTA (Gibco BRL, San Francisco, CA, USA) and used in the experiments. Untreated cells were used as a control. […] After 24 h of incubation, the culture medium was replaced with a fresh medium. […] Then, the medium was aspirated and formed formazan crystals were solubilized by adding isopropanol-DMSO mixture (1:1 vol). The intensity of the dissolved crystals was measured using a UVM 340 reader (ASYS Hitech GmbH, Eugendorf, Austria) at a wavelength of 570 nm. Cell viability was estimated by the percentage of MTT reduction in cells to which the tested compounds were added, compared to the control sample, where only the medium was added. The experiments were repeated three times. The IC50 was calculated using GraphPad Prism 9.0.0 (GraphPad Software).

MDA-MB-231 = test: MTT cell viability assay; assay type: cell-based, human; conditions: Homo sapiens, MDA-MB-231, MTT, read-out: Cytotoxic activity IC50
Procedure: as §4

C. albicans = tested on: C. albicans; design: method as in PMID 25412038; conditions: cited from earlier work
MTT cell viability assay = assay type: cell-based; conditions: human, HaCaT cells (immortal keratinocytes), HaCaT normal cell line, read-out: Cytotoxic activity IC50 (converted)
Procedure: as §4

[15] = tested on: reference strains of bacteria; test: Positive control antibiotics, broth microdilution MIC; assay type: cell-based; conditions: range over the bacteria
Procedure: (§5) The reference antibiotics used during our studies for the selected species of reference bacteria were ciprofloxacin and cefuroxime (Merck KGaA, Darmstadt, Germany). Nystatin (Merck KGaA, Darmstadt, Germany), a known antifungal antibiotic, was used as a positive control for Candida spp.
(§6) All reference antimicrobials against bacteria or fungi were tested in a final concentration range from 0.0049 to 10 µg/mL. The tested Schiff bases were two-fold diluted in the concentration range from 0.49 to 1000 μg/mL in culture broth medium for bacteria or fungi. The medium with DMSO at the final concentrations and without the tested Schiff bases served as a control—no microbial growth inhibition was observed. […]
The minimal inhibitory concentration (MIC) was determined with the microdilution technique using 96-well polystyrene microplates (Medlab, Poland), as indicated by the European Committee on Antimicrobial Susceptibility Testing (EUCAST) guidelines. […] After the incubation, the results were spectrophotometrically determined in Biotek ELx800 (Biokom, Janki, Poland) at 600 nm (OD600). The lowest concentration of the tested compounds with the absence of bacterial growth was determined as an MIC. […]

[16] = tested on: yeast reference strains (Candida spp.); test: Positive control antifungal, broth microdilution MIC; assay type: cell-based; conditions: range over yeast reference strains
Procedure: as §5
as §6, with “observed. Three types of control were also carried out simultaneously: (1) serial dilution of the tested Schiff bases in broth medium (without bacteria or fungi) in the same concentration range, (2) a growth control for each strain in broth medium and agar medium for bacteria or fungi, and (3) a negative control of sterile broth or agar medium.” for “observed.”
After incubation, 5 μL of the broth media cultured with bacteria or fungi were removed from each well of the plates used in the MIC experiments. […] After incubation, a visual reading of MBC or MFC values was made. […]

Compound	melting point [°C]	MIC [1] [µg/mL]	MIC [2] [µg/mL]	MIC [3] [µg/mL]	MIC [4] [µg/mL]	MIC [5] [µg/mL]	MIC (Candida auris CDC B11903) [µg/mL]	MIC [6] [µg/mL]	MIC [7] [µg/mL]	MIC [8] [µg/mL]	MIC [9] [µg/mL]	MBC [10] [µg/mL]	MIC [10] [µg/mL]	MIC [11] [µg/mL]	MIC [12] [µg/mL]	MIC [13] [µg/mL]	IC50 (PC3; 72 h (table footnote)) [µM]	IC50 (PC3; same value in µg/mL) [µg/mL]	IC50 (MDA-MB-231; 72 h (table footnote)) [µM]	IC50 (MDA-MB-231; same value in µg/mL) [µg/mL]	further results
Fc1ccc(C=Nn2c(-c3cccc(F)c3)n[nH]c2=S)cc1 [RO7, 4-[(4-fluorobenzylidene)amino]-5-(3-fluorophenyl)-2,4-dihydro-3H-1,2,4-triazole-3-thione]	217 to 218	> 1000	> 1000	> 1000	> 1000	> 1000	> 1000	> 1000	500 (≈ 1.58 mM)	> 1000	250 (≈ 0.79 mM)	> 1000	500 (≈ 1.58 mM)	> 1000	> 1000	> 1000	> 100	> 31.6	> 100	> 31.6	MBC [7]: > 1000 µg/mL; MBC [9]: > 1000 µg/mL; MICs [14]: 16 to 125 µg/mL; MIC (C. albicans): 4 µg/mL (≈ 0.0126 mM); IC50 at 72 h (MTT cell viability assay; 72 h (table footnote)): > 100 µM; IC50 at 72 h (MTT cell viability assay; same value in µg/mL): > 31.6 µg/mL
CO/N=C(\C(=O)N[C@@H]1C(=O)N2C(C(=O)O)=C(COC(N)=O)CS[C@H]12)c1ccco1 [cefuroxime]	–	–	–	–	–	–	–	–	–	–	–	–	–	–	–	–	–	–	–	–	MIC [15]: 0.24 to 62.5 µg/mL (≈ 0.000566 to 0.147 mM)
O=C(O)c1cn(C2CC2)c2cc(N3CCNCC3)c(F)cc2c1=O [ciprofloxacin]	–	–	–	–	–	–	–	–	–	–	–	–	–	–	–	–	–	–	–	–	MIC [15]: 0.24 to 0.98 µg/mL (≈ 0.000724 to 0.00296 mM)
C[C@@H]1[C@H](O)[C@@H](C)/C=C/C=C/CC/C=C/C=C/C=C/C=C/C(O[C@H]2O[C@H](C)[C@@H](O)[C@H](N)[C@@H]2O)CC2O[C@](O)(CC(O)C(O)CCC(O)CC(O)CC(O)CC(=O)O[C@H]1C)CC(O)C2C(=O)O (stereo partly drawn) [Nystatin]	–	–	–	–	–	–	–	–	–	–	–	–	–	–	–	–	–	–	–	–	MIC [16]: 0.24 to 0.48 µg/mL; MBC ([16]; printed MIC = MBC): 0.24 to 0.48 µg/mL
COc1ccc(C=Nn2c(-c3cccc(F)c3)n[nH]c2=S)cc1 [RO4, 5-(3-fluorophenyl)-4-[(4-methoxybenzylidene)amino]-2,4-dihydro-3H-1,2,4-triazole-3-thione]	215 to 216	1000 (≈ 3.05 mM)	500 (≈ 1.52 mM)	1000 (≈ 3.05 mM)	> 1000	1000 (≈ 3.05 mM)	1000 (≈ 3.05 mM)	62.5 (≈ 0.19 mM)	500 (≈ 1.52 mM)	1000 (≈ 3.05 mM)	125 (≈ 0.381 mM)	> 1000	500 (≈ 1.52 mM)	1000 (≈ 3.05 mM)	> 1000	1000 (≈ 3.05 mM)	> 100	> 38.8	> 100	> 38.8	MFC [2]: > 1000 µg/mL; MFC [6]: >1000 µg/mL; MFC ([6]; ATCC10231, read-out: MFC): > 1000 µg/mL; MBC [7]: > 1000 µg/mL; MBC [9]: > 1000 µg/mL; MBC [12]: > 1000 µg/mL; IC50 at 72 h (MTT cell viability assay; 72 h (table footnote)): > 100 µM; IC50 at 72 h (MTT cell viability assay; same value in µg/mL): > 38.8 µg/mL
Cc1ccccc1C=Nn1c(-c2cccc(F)c2)n[nH]c1=S [RO10, 5-(3-fluorophenyl)-4-[(2-methylbenzylidene)amino]-2,4-dihydro-3H-1,2,4-triazole-3-thione]	223 to 224	> 1000	> 1000	500 (≈ 1.6 mM)	500 (≈ 1.6 mM)	500 (≈ 1.6 mM)	1000 (≈ 3.2 mM)	500 (≈ 1.6 mM)	1000 (≈ 3.2 mM)	> 1000	> 1000	> 1000	125 (≈ 0.4 mM)	> 1000	> 1000	> 1000	> 100	> 31.2	> 100	> 31.2	MFC [3]: > 1000 µg/mL; MFC [4]: > 1000 µg/mL; MFC [5]: > 1000 µg/mL; MFC ([6]; ATCC10231, read-out: MFC): > 1000 µg/mL; IC50 at 72 h (MTT cell viability assay; 72 h (table footnote)): > 100 µM; IC50 at 72 h (MTT cell viability assay; same value in µg/mL): > 31.2 µg/mL

Reference: article PMC10057893, “Synthesis and Biological Evaluation of New Schiff Bases Derived from 4-Amino-5-(3-fluorophenyl)-1,2,4-triazole-3-thione” (Molecules, 2023)
